Here are results for 13 compounds from US11447466B2, “Substituted indole compounds useful as inhibitors of TLR7/8/9” (BRISTOL-MYERS SQUIBB COMPANY, priority 2017, dated 2022).

Holding throughout (type): cell-based
One experiment deals with T1, human TLR8 (Homo sapiens, UniProt Q9NR97).
T1 construct: host or cells: HEK-Blue cells
T1 sequence (Q9NR97 27-1041): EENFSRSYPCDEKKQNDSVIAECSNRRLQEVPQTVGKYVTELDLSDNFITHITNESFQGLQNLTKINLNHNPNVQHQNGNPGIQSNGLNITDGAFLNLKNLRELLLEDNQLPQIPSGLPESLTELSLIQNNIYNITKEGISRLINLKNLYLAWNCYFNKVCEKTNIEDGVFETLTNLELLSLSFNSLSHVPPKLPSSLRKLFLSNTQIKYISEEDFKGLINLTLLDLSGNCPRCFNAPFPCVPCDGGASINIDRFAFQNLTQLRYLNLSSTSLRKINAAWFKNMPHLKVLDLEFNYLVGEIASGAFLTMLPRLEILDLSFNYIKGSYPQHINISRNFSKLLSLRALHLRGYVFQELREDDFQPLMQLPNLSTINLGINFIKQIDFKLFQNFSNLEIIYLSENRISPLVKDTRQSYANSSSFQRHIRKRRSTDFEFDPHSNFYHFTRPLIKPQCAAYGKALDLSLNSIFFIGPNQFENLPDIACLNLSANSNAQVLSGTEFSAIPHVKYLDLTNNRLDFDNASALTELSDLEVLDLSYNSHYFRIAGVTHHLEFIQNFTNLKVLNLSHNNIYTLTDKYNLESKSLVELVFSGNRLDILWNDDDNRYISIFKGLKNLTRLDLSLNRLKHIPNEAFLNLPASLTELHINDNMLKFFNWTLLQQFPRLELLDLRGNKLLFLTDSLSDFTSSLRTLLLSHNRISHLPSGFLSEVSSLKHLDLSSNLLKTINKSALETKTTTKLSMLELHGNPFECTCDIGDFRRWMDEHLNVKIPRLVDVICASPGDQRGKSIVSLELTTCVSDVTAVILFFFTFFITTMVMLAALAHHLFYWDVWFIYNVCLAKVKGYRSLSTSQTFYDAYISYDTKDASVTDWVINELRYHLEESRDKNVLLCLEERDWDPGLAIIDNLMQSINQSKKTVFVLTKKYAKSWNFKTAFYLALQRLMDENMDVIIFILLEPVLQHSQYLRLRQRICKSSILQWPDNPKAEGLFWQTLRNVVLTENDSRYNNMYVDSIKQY
The experiment can be described thus: TLR8 inhibition reporter assay (HEK-Blue SEAP reporter, R848 stimulation). The conditions noted are these: HEK-Blue cells overexpressing human TLR8, SEAP reporter, R848 15.9 μM, 22 hour incubation. Put shortly:
(§1)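 Human TLR7/8/9 HEK-Blue reporter lines; dose range 0.05 nM–50 μM; 30 min RT preincubation; stimulus gardiquimod 7.5 μM / R848 15.9 μM / ODN2006 5 nM respectively; 22 h, 37 °C; SEAP detected colorimetrically.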

The target in a further experiment is T2, human TLR7 (Homo sapiens, UniProt Q9NYK1).
T2 construct: host or cells: HEK-Blue cells
T2 sequence (Q9NYK1 27-1049): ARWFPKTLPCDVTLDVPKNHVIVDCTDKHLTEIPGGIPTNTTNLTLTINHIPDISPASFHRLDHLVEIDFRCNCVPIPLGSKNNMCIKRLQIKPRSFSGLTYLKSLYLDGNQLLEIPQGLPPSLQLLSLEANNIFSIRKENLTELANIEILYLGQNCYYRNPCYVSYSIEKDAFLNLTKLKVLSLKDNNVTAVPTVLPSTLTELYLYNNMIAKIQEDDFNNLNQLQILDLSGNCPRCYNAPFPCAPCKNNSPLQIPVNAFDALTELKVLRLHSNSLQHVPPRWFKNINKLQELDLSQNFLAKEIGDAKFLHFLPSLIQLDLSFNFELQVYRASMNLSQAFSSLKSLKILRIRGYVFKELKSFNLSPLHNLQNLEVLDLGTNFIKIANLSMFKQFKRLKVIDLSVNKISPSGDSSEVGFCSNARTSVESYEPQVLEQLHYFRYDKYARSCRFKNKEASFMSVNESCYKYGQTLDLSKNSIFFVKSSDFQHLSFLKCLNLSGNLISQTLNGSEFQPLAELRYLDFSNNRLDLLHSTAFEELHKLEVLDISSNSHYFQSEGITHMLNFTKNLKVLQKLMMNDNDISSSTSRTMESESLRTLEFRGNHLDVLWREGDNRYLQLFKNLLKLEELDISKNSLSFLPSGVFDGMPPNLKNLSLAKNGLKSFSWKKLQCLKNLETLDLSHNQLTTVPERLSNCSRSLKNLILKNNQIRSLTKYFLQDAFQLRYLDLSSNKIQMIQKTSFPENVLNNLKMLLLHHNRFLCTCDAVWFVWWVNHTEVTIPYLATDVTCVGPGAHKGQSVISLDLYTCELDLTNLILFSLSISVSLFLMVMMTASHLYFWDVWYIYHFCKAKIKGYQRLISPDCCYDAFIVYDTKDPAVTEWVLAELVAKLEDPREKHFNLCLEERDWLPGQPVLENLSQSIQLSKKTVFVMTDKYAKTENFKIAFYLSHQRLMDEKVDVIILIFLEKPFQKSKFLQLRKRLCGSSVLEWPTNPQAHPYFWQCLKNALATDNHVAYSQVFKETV
The experiment can be described thus: TLR7 inhibition reporter assay (HEK-Blue SEAP reporter, gardiquimod stimulation). The note with it: HEK-Blue cells overexpressing human TLR7, SEAP reporter, gardiquimod 7.5 μM, 22 hour incubation. The procedure, abridged: as §1
A general note: In a reporter assay the amount or activity of a reporter protein is the signal.

Another experiment addresses T3, human TLR9 (Homo sapiens, UniProt Q9NR96).
T3 construct: host or cells: HEK-Blue cells
T3 sequence (Q9NR96 26-1032): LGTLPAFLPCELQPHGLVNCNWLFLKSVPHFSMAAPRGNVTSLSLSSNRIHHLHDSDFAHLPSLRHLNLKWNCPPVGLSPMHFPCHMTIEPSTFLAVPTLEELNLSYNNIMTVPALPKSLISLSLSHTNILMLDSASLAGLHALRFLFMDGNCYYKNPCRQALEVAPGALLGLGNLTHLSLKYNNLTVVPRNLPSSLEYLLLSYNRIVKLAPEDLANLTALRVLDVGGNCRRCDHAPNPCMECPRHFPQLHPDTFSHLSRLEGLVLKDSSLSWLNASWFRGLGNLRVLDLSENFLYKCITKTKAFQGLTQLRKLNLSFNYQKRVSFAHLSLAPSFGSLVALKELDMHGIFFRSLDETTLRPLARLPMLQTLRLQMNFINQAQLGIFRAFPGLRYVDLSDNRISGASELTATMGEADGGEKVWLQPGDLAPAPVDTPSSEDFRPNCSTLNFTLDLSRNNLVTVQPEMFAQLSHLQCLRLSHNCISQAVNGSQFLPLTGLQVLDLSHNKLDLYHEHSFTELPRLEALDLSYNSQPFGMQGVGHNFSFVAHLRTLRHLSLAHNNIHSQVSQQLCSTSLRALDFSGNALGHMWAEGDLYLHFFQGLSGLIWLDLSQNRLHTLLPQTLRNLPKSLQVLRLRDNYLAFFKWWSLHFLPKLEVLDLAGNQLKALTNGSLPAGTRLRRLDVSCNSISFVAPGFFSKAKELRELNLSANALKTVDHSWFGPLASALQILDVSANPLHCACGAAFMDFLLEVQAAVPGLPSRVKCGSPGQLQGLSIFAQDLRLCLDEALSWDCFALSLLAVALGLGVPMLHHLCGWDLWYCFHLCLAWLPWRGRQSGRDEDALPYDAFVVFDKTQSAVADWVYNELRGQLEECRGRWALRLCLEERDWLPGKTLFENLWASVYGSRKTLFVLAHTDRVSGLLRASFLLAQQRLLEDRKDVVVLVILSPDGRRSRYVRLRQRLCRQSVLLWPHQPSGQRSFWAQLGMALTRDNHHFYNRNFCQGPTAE
Description: TLR9 inhibition reporter assay (HEK-Blue SEAP reporter, ODN2006 stimulation). The note with it: HEK-Blue cells overexpressing human TLR9, SEAP reporter, ODN2006 5 nM, 22 hour incubation. Put shortly: as §1

The structures appear in SMILES notation.

For `Cc1cc(-c2[nH]c3ccc(C4CCN(CC(C)(C)O)CC4)cc3c2C(C)C)cn(C)c1=O` [Example 310, 5-(5-(1-(2-hydroxy-2-methylpropyl)piperidin-4-yl)-3-isopropyl-1H-indol-2-yl)-1,3-dimethylpyridin-2(1H)-one], the IC50 (as a rule, the concentration needed to halve the response being measured) is 1.3 nM on human TLR8, 2.3 nM on human TLR7 and 5540 nM on human TLR9.
Regarding `CCCN1CCC(c2ccc3[nH]c(-c4cc(-c5ccc(F)nc5)c(=O)n(C)c4)c(C(C)C)c3c2)CC1` [Example 341, 6′-fluoro-5-(3-isopropyl-5-(1-propylpiperidin-4-yl)-1H-indol-2-yl)-1-methyl-[3,3′-bipyridin]-2(1H)-one], the half-maximal inhibitory concentration (IC50) was determined as 4.3 nM on human TLR8, 16.2 nM at human TLR7 and 714 nM against human TLR9.
In the case of `COCc1cc(-c2[nH]c3ccc(C4CCN(CC(=O)N(C)C)CC4)cc3c2C(C)C)cn(C)c1=O` [Example 351, 2-(4-(3-isopropyl-2-(5-(methoxymethyl)-1-methyl-6-oxo-1,6-dihydropyridin-3-yl)-1H-indol-5-yl)piperidin-1-yl)-N,N-dimethylacetamide], the IC50 was found to be 135 nM at human TLR8, 78.5 nM against human TLR7 and 11900 nM against human TLR9.
On the same counts, the results for `Cc1cc(=O)n(C)cc1-c1[nH]c2ccc(C3CCNCC3)cc2c1C(C)C` [Example 8, 5-(3-isopropyl-5-(piperidin-4-yl)-1H-indol-2-yl)-1,4-dimethylpyridin-2(1H)-one] are 43.5 nM, 72.7 nM and 957 nM.
On the same counts, the results for `C=Cc1cc(-c2[nH]c3ccc(C4CCN(CC(=O)N(C)C)CC4)cc3c2C(C)C)cn(C)c1=O` [Example 352, 2-(4-(3-isopropyl-2-(1-methyl-6-oxo-5-vinyl-1,6-dihydropyridin-3-yl)-1H-indol-5-yl)piperidin-1-yl)-N,N-dimethylacetamide] are 31.5 nM, 21.5 nM and 2420 nM.
Take `Cc1cc(-c2[nH]c3ccc(C4CCN([C@H]5CCOC[C@@H]5O)CC4)cc3c2C(C)C)cn(C)c1=O` [Example 313, 5-(5-(1-((3R,4S)-3-hydroxytetrahydro-2H-pyran-4-yl)piperidin-4-yl)-3-isopropyl-1H-indol-2-yl)-1,3-dimethylpyridin-2(1H)-one]: the IC50 against human TLR8 was determined as 3.1 nM; against human TLR7, 4.7 nM; on human TLR9, 8040 nM.
The corresponding values for `CCc1cc(-c2[nH]c3ccc(C4CCNCC4)cc3c2C(C)C)cn(C)c1=O` [Example 67, 3-ethyl-5-(3-isopropyl-5-(piperidin-4-yl)-1H-indol-2-yl)-1-methylpyridin-2(1H)-one] are 5.9 nM, 4.3 nM and 919 nM.
As for `COCCn1cc(-c2[nH]c3ccc(C4CCN(CC(C)C)CC4)cc3c2C(C)C)cc(C)c1=O` [Example 109, 5-(5-(1-isobutylpiperidin-4-yl)-3-isopropyl-1H-indol-2-yl)-1-(2-methoxyethyl)-3-methylpyridin-2(1H)-one], the results for the IC50 against human TLR8, against human TLR7 and at human TLR9 were 9.7 nM, 13 nM and 5310 nM, respectively.
Take `CNC(=O)CN1CCC(c2ccc3[nH]c(-c4cc(C)c(=O)n(CCOC)c4)c(C(C)C)c3c2)CC1` [Example 160, 2-(4-(3-isopropyl-2-(1-(2-methoxyethyl)-5-methyl-6-oxo-1,6-dihydropyridin-3-yl)-1H-indol-5-yl)piperidin-1-yl)-N-methylacetamide]: the IC50 was found to be 14.5 nM on human TLR8, 8.9 nM at human TLR7 and 14700 nM on human TLR9.
Regarding `Cc1nc(-c2[nH]c3ccc(C4CCN(C5COC5)CC4)cc3c2C(C)C)cn(C)c1=O` [Example 186, 5-(3-isopropyl-5-(1-(oxetan-3-yl)piperidin-4-yl)-1H-indol-2-yl)-1,3-dimethylpyrazin-2(1H)-one], the IC50 is 75.5 nM against human TLR8, 112 nM against human TLR7 and 6730 nM against human TLR9.
`Cc1cc(-c2[nH]c3ccc(C4CCNCC4)cc3c2C(C)C)c(C)n(C)c1=O` [Example 3, 5-(3-isopropyl-5-(piperidin-4-yl)-1H-indol-2-yl)-1,3,6-trimethylpyridin-2(1H)-one]: the figures for the IC50 at human TLR8, against human TLR7 and against human TLR9 were 3.4 nM, 8.4 nM and 979 nM, respectively.
For `Cc1cc(-c2[nH]c3ccc(C4CCN(C(=O)CN(C)C)CC4)cc3c2C(C)C)nn(C)c1=O` [Example 294, 6-(5-(1-(dimethylglycyl)piperidin-4-yl)-3-isopropyl-1H-indol-2-yl)-2,4-dimethylpyridazin-3(2H)-one], the concentration for half-maximal inhibition (IC50) against human TLR8 was 16.9 nM; against human TLR7, 12.5 nM; on human TLR9, 3320 nM.
With `Cc1c(-c2[nH]c3ccc(C4CCN(CC(=O)N(C)C)CC4)cc3c2C(C)C)cn(C)c(=O)c1Cl` [Example 152, 2-(4-(2-(5-chloro-1,4-dimethyl-6-oxo-1,6-dihydropyridin-3-yl)-3-isopropyl-1H-indol-5-yl)piperidin-1-yl)-N,N-dimethylacetamide], the half-inhibitory concentration (IC50) stood at 4.6 nM at human TLR8, 1.4 nM against human TLR7 and 16600 nM at human TLR9.
